One data set deals with Albumin (Homo sapiens, UniProt P02768). Description: Binding affinity to human serum albumin immobilized on AR2G biosensor assessed as dissociation constant incubated for 3 mins by BLI assay. It is filed as ADME.
The target of data set [1] is T1, Glucagon-like peptide 1 receptor (Homo sapiens, UniProt P43220). Description: Agonist activity at GLP-1R (unknown origin) expressed in HEK293 cells co-expressing CRE-Luc assessed as increase in intracellular cAMP accumulation in presence of 10% FBS by luciferase based assay. The data set is classed as functional, cell-based. The conditions noted are these: read-out: EC50.

The target of data set [2] is T1, Glucagon-like peptide 1 receptor. Description: Agonist activity at GLP-1R (unknown origin) expressed in HEK293 cells co-expressing CRE-Luc assessed as increase in intracellular cAMP accumulation by luciferase based assay. It is filed as functional, cell-based. The conditions noted are these: read-out: EC50.
The target is the same in data set [3]. Description: Agonist activity at GLP-1R (unknown origin) expressed in HEK293 cells co-expressing CRE-Luc assessed as increase in intracellular cAMP accumulation in presence of 2% HSA by luciferase based assay. It is filed as functional, cell-based. As to conditions: read-out: EC50.
A short description of data set [4]: Selectivity ratio of EC50 for agonist activity at GLP-1R (unknown origin) expressed in HEK293 cells co-expressing CRE-Luc assessed as increase in intracellular cAMP accumulation in presence of 2% HSA to EC50 for agonist activity at GLP-1R (unknown origin) expressed in HEK293 cells co-expressing CRE-Luc assessed as increase in intracellular cAMP accumulation. It is filed as cell-based.

Data set [5] in a line: Stability in Sprague-Dawley rat plasma assessed as compound remaining measured after 96 hrs by RP-HPLC analysis. As to conditions: read-out: Stability. It is filed as ADME, cell-free.
Data set [6] can be described thus: Stability in Sprague-Dawley rat plasma assessed as drug degradation by measuring half life measured after 96 hrs by RP-HPLC analysis. The data set is classed as ADME, cell-free.
The nature of data set [7]: Apparent volume of distribution in BALB/c mouse at 0.5 mg/kg, iv measured up to 48 hrs by LC-MS/MS analysis. The conditions noted are these: in vivo, read-out: Vz. The data set is classed as ADME, organism-based.
A short description of data set [8]: Apparent volume of distribution in Sprague-Dawley rat at 1 mg/kg, iv measured up to 48 hrs by LC-MS/MS analysis. It is filed as ADME, organism-based. As to conditions: in vivo, read-out: Vz.
Data set [9] relates to Mus musculus. Description: Anti-hyperglycemic activity in type-2 diabetes db/db mouse assessed as regulation of blood glucose level at 3 to 600 nmol/kg, sc measured up to 96 hrs. The data set is classed as functional, organism-based.
The test system of data set [10] is Mus musculus. Description: Anti-hyperglycemic activity in 16 hr-fasted type-2 diabetes db/db mouse assessed as homeostasis of blood glucose level at 100 nmol/kg, sc pretreated for 0.5 hrs followed by glucose administration measured for 2 hrs. It is filed as functional, organism-based. As to conditions: time 2.5 hrs.
The test system of data set [11] is Mus musculus. Description: Anti-hyperglycemic activity in 16 hr-fasted type-2 diabetes db/db mouse at 100 nmol/kg, sc pretreated for 0.5 hrs followed by glucose administration measured for 2 hrs by OGTT method. It is filed as functional, organism-based. The conditions noted are these: time 2.5 hrs.
The test system of data set [12] is Mus musculus. Description: Anti-hyperglycemic activity in well-fed type-2 diabetes db/db mouse assessed as blood glucose level at 100 nmol/kg, sc administered on every 48 hrs. It is filed as functional.

Active and inactive are the calls of the source. The calls are words filed in the database; no cut-off is given here.

T1 sequence (P43220 whole entry): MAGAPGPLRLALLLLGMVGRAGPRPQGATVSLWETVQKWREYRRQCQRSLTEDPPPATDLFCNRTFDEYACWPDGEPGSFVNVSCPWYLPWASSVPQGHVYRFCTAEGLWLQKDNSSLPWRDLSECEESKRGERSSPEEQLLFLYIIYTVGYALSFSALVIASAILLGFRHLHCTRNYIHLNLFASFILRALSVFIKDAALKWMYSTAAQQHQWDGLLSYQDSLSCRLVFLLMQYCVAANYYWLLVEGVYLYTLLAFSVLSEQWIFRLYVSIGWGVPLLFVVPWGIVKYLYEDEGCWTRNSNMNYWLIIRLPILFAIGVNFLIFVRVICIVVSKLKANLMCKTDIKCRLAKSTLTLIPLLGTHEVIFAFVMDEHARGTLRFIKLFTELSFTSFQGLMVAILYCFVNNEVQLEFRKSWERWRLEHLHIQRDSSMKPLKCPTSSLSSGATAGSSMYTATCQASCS
Albumin, sequence (P02768 whole entry): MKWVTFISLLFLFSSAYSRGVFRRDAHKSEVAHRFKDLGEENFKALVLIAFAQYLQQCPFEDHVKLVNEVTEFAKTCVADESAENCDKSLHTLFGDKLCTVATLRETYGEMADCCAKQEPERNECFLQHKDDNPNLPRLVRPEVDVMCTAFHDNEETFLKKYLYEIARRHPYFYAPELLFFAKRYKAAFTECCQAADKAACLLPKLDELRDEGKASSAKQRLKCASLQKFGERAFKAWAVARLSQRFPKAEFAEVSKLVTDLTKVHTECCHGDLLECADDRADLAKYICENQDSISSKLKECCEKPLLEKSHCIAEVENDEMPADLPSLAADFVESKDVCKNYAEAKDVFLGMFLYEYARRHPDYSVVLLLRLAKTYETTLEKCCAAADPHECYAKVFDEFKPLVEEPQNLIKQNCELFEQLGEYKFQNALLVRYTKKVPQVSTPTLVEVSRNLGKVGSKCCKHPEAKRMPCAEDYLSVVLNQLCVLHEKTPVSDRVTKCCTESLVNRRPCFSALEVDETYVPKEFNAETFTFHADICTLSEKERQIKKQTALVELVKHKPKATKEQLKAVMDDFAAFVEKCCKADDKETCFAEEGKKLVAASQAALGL

Regarding `CCOc1ccc(Nc2ccc(/C(=C3C=C/C(=[N+](/CC)Cc4cccc(S(=O)(=O)[O-])c4)C=C/3C)c3ccc(N(CC)Cc4cccc(S(=O)(=O)O)c4)cc3C)cc2)cc1` [BRILLIANT BLUE G FREE ACID], the Kd at Albumin worked out at 320000 pM.
For `CCOc1ccc(Nc2ccc(/C(=C3C=C/C(=[N+](\CC)Cc4cccc(S(=O)(=O)[O-])c4)C=C\3C)c3ccc(N(CC)Cc4cccc(S(=O)(=O)NCCCCCC(=O)NCCOCCOCCOCCOCCOCCOCCOCCOCCC(=O)NCCCC[C@H](NC(=O)[C@@H](NC(=O)[C@H](CC(C)C)NC(=O)[C@H](Cc5c[nH]c6ccccc56)NC(=O)[C@H](C)NC(=O)[C@@H](NC(=O)[C@H](Cc5ccccc5)NC(=O)[C@H](CCC(=O)O)NC(=O)[C@H](CCCCN)NC(=O)[C@H](C)NC(=O)[C@H](C)NC(=O)[C@H](CCC(N)=O)NC(=O)CNC(=O)[C@H](CCC(=O)O)NC(=O)[C@H](CC(C)C)NC(=O)[C@H](Cc5ccc(O)cc5)NC(=O)[C@H](CO)NC(=O)[C@H](CO)NC(=O)[C@@H](NC(=O)[C@H](CC(=O)O)NC(=O)[C@H](CO)NC(=O)[C@@H](NC(=O)[C@H](Cc5ccccc5)NC(=O)[C@@H](NC(=O)CNC(=O)[C@H](CCC(=O)O)NC(=O)[C@H](CO)NC(=O)[C@@H](N)Cc5c[nH]cn5)[C@@H](C)O)[C@@H](C)O)C(C)C)[C@@H](C)CC)C(C)C)C(=O)NCC(=O)N[C@@H](CCCNC(=N)N)C(N)=O)c4)cc3C)cc2)cc1`, the EC50 in data set [1] stood at 3.96 pM; in data set [2], 0.33 pM; in data set [3], 0.84 pM. Moreover, the Ratio EC50 in data set [4] turned out to be 2.55.
On to H-HGEGTFTSDVSSYLEGQAAREFIAWLVRGRG-NH2, for which the EC50 in data set [1] was found to be 16.1 pM; in data set [2], 62.8 pM; in data set [3] it was 84.2 pM. Moreover, the Ratio EC50 in data set [4] stood at 1.34. Further, in data set [5], the remaining at 96 h worked out at 0%. Besides, the half-life in data set [6] was 50 min.
On to `CCOc1ccc(Nc2ccc(/C(=C3C=C/C(=[N+](\CC)Cc4ccc(S(=O)(=O)[O-])cc4)C=C/3C)c3ccc(N(CC)Cc4cccc(S(=O)(=O)NCCCCCC(=O)N[C@H](C(=O)O)C(=O)NCCCC[C@H](NC(=O)[C@H](C)NC(=O)[C@H](C)NC(=O)[C@H](CCC(N)=O)NC(=O)CNC(=O)[C@H](CCC(=O)O)NC(=O)[C@H](CC(C)C)NC(=O)[C@H](Cc5ccc(O)cc5)NC(=O)[C@H](CO)NC(=O)[C@H](CO)NC(=O)[C@@H](NC(=O)[C@H](CC(=O)O)NC(=O)[C@H](CO)NC(=O)[C@@H](NC(=O)[C@H](Cc5ccccc5)NC(=O)[C@@H](NC(=O)CNC(=O)[C@H](CCC(=O)O)NC(=O)C(C)(C)NC(=O)[C@@H](N)Cc5c[nH]cn5)[C@@H](C)O)[C@@H](C)O)C(C)C)C(=O)N[C@@H](CCC(=O)O)C(=O)N[C@@H](Cc5ccccc5)C(=O)N[C@H](C(=O)N[C@@H](C)C(=O)N[C@@H](Cc5c[nH]c6ccccc56)C(=O)N[C@@H](CC(C)C)C(=O)N[C@H](C(=O)N[C@@H](CCCNC(=N)N)C(=O)NCC(=O)N[C@@H](CCCNC(=N)N)C(=O)NCC(=O)O)C(C)C)[C@@H](C)CC)c4)cc3C)cc2)cc1`, for which the EC50 worked out at 4.08 pM in [1], 1.12 pM in [2] and 8.86 pM in [3]. Also, the Ratio EC50 in data set [4] amounted to 7.91.
In the case of `CCOc1ccc(Nc2ccc(/C(=C3C=C/C(=[N+](\CC)Cc4cccc(S(=O)(=O)[O-])c4)C=C/3C)c3ccc(N(CC)Cc4cccc(S(=O)(=O)NCCCCCC(=O)NCCOCCOCC(=O)NCCOCCOCC(=O)NCCOCCOCC(=O)NCCCC[C@H](NC(=O)[C@H](C)NC(=O)[C@H](C)NC(=O)[C@H](CCC(N)=O)NC(=O)CNC(=O)[C@H](CCC(=O)O)NC(=O)[C@H](CC(C)C)NC(=O)[C@H](Cc5ccc(O)cc5)NC(=O)[C@H](CO)NC(=O)[C@H](CO)NC(=O)[C@@H](NC(=O)[C@H](CC(=O)O)NC(=O)[C@H](CO)NC(=O)[C@@H](NC(=O)[C@H](Cc5ccccc5)NC(=O)[C@@H](NC(=O)CNC(=O)[C@H](CCC(=O)O)NC(=O)C(C)(C)NC(=O)[C@@H](N)Cc5c[nH]cn5)[C@@H](C)O)[C@@H](C)O)C(C)C)C(=O)N[C@@H](CCC(=O)O)C(=O)N[C@@H](Cc5ccccc5)C(=O)N[C@H](C(=O)N[C@@H](C)C(=O)N[C@@H](Cc5c[nH]c6ccccc56)C(=O)N[C@@H](CC(C)C)C(=O)N[C@H](C(=O)N[C@@H](CCCNC(=N)N)C(=O)NCC(=O)N[C@@H](CCCNC(=N)N)C(=O)NCC(=O)O)C(C)C)[C@@H](C)CC)c4)cc3C)cc2)cc1`, the EC50 in data set [1] amounted to 1.46 pM; in data set [2], 0.83 pM; in data set [3], 4.31 pM.
Regarding `CC[C@H](C)[C@H](NC(=O)[C@H](Cc1ccccc1)NC(=O)[C@H](CCC(=O)O)NC(=O)[C@H](CCCCNC(=O)COCCOCCNC(=O)COCCOCCNC(=O)CC[C@H](NC(=O)CCCCCCCCCCCCCCCCC(=O)O)C(=O)O)NC(=O)[C@H](C)NC(=O)[C@H](C)NC(=O)[C@H](CCC(N)=O)NC(=O)CNC(=O)[C@H](CCC(=O)O)NC(=O)[C@H](CC(C)C)NC(=O)[C@H](Cc1ccc(O)cc1)NC(=O)[C@H](CO)NC(=O)[C@H](CO)NC(=O)[C@@H](NC(=O)[C@H](CC(=O)O)NC(=O)[C@H](CO)NC(=O)[C@@H](NC(=O)[C@H](Cc1ccccc1)NC(=O)[C@@H](NC(=O)CNC(=O)[C@H](CCC(=O)O)NC(=O)C(C)(C)NC(=O)[C@@H](N)Cc1cnc[nH]1)[C@@H](C)O)[C@@H](C)O)C(C)C)C(=O)N[C@@H](C)C(=O)N[C@@H](Cc1c[nH]c2ccccc12)C(=O)N[C@@H](CC(C)C)C(=O)N[C@H](C(=O)N[C@@H](CCCNC(=N)N)C(=O)NCC(=O)N[C@@H](CCCNC(=N)N)C(=O)NCC(=O)O)C(C)C`, the results for the Vd in [7] and in data set [8] were 0.083 L/kg and 0.163 L/kg, respectively. Besides, in the data set on Mus musculus [9], the EC50 amounted to 2 nmol/kg. For the same molecule, the outcome in the data set on Mus musculus [10] and in the data set with Mus musculus [11] was Active. The Activity with Mus musculus [12] was less than 10 mM.
As for `CCOc1ccc(Nc2ccc(/C(=C3C=C/C(=[N+](\CC)Cc4ccc(S(=O)(=O)[O-])cc4)C=C/3C)c3ccc(N(CC)Cc4cccc(S(=O)(=O)NCCCCCC(=O)NCc5ccc(C(=O)NCCCC[C@H](NC(=O)[C@H](C)NC(=O)[C@H](C)NC(=O)[C@H](CCC(N)=O)NC(=O)CNC(=O)[C@H](CCC(=O)O)NC(=O)[C@H](CC(C)C)NC(=O)[C@H](Cc6ccc(O)cc6)NC(=O)[C@H](CO)NC(=O)[C@H](CO)NC(=O)[C@@H](NC(=O)[C@H](CC(=O)O)NC(=O)[C@H](CO)NC(=O)[C@@H](NC(=O)[C@H](Cc6ccccc6)NC(=O)[C@@H](NC(=O)CNC(=O)[C@H](CCC(=O)O)NC(=O)C(C)(C)NC(=O)[C@@H](N)Cc6c[nH]cn6)[C@@H](C)O)[C@@H](C)O)C(C)C)C(=O)N[C@@H](CCC(=O)O)C(=O)N[C@@H](Cc6ccccc6)C(=O)N[C@H](C(=O)N[C@@H](C)C(=O)N[C@@H](Cc6c[nH]c7ccccc67)C(=O)N[C@@H](CC(C)C)C(=O)N[C@H](C(=O)N[C@@H](CCCNC(=N)N)C(=O)NCC(=O)N[C@@H](CCCNC(=N)N)C(=O)NCC(=O)O)C(C)C)[C@@H](C)CC)cc5)c4)cc3C)cc2)cc1`, the EC50 in data set [1] was 4.2 pM; in data set [2] it was 1.08 pM; in data set [3] it was 3.22 pM.
For `CCOc1ccc(Nc2ccc(/C(=C3C=C/C(=[N+](\CC)Cc4cccc(S(=O)(=O)[O-])c4)C=C/3C)c3ccc(N(CC)Cc4cccc(S(=O)(=O)NCCCCCC(=O)N[C@@H](CCC(=O)NCCCC[C@H](NC(=O)[C@H](C)NC(=O)[C@H](C)NC(=O)[C@H](CCC(N)=O)NC(=O)CNC(=O)[C@H](CCC(=O)O)NC(=O)[C@H](CC(C)C)NC(=O)[C@H](Cc5ccc(O)cc5)NC(=O)[C@H](CO)NC(=O)[C@H](CO)NC(=O)[C@@H](NC(=O)[C@H](CC(=O)O)NC(=O)[C@H](CO)NC(=O)[C@@H](NC(=O)[C@H](Cc5ccccc5)NC(=O)[C@@H](NC(=O)CNC(=O)[C@H](CCC(=O)O)NC(=O)C(C)(C)NC(=O)[C@@H](N)Cc5c[nH]cn5)[C@@H](C)O)[C@@H](C)O)C(C)C)C(=O)N[C@@H](CCC(=O)O)C(=O)N[C@@H](Cc5ccccc5)C(=O)N[C@H](C(=O)N[C@@H](C)C(=O)N[C@@H](Cc5c[nH]c6ccccc56)C(=O)N[C@@H](CC(C)C)C(=O)N[C@H](C(=O)N[C@@H](CCCNC(=N)N)C(=O)NCC(=O)N[C@@H](CCCNC(=N)N)C(=O)NCC(=O)O)C(C)C)[C@@H](C)CC)C(=O)O)c4)cc3C)cc2)cc1` the same measures were 2.92 pM, 1.17 pM and 9.1 pM.

The record behind these values is ChEMBL document CHEMBL6109125, “A New Protractor Potentiates Glucagon-Like Peptide 1 with Slow-Release Depot and Long-Term Action” (J Med Chem, 2025).
